Data as given in patent US6358885B1, “Substituted phenylheterocyclic herbicides” (Mississippi State University, priority 1992, dated 2002).

Key:
cheatgrass = experiment: Test B preemergence/postemergence greenhouse plant response rating 0 to 10; type: in vivo, Bromus secalinus; details: 0 to 10 scale
Procedure, shortened: (§1)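 Postemergence treatment of plants two to eighteen cm tall ran alongside preemergence treatment of planted seed, each using compound in a non-phytotoxic solvent.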

cotton = experiment: as above; type: in vivo, Gossypium hirsutum; details: 0 to 10 scale
Procedure, shortened: as §1

lambsquarters [1] = experiment: as above; type: in vivo, Chenopodium album; details: 0 to 10 scale
Procedure, shortened: as §1

rice = experiment: as above; type: in vivo, Oryza sativa; details: 0 to 10 scale
Procedure, shortened: as §1

soybean [2] = experiment: as above; type: in vivo, Glycine max; details: 0 to 10 scale
Procedure, shortened: as §1

velvetleaf [3] = experiment: as above; type: in vivo, Abutilon theophrasti; details: 0 to 10 scale
Procedure, shortened: as §1

wild buckwheat = experiment: as above; type: in vivo, Polygonum convolvulus; details: 0 to 10 scale
Procedure, shortened: as §1

purple nutsedge = experiment: as above; type: in vivo, Cyperus rotundus; details: 0 to 10 scale
Procedure, shortened: as §1

barley = experiment: Test C preemergence/postemergence greenhouse plant response rating 0 to 100; type: in vivo, Hordeum vulgare; details: POSTEMERGENCE; for Plant response rating Barley Igri: 0 to 100 scale
Procedure, shortened: (§2)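 Compounds in non-phytotoxic solvent went onto sandy loam before emergence (seeded one day earlier) or onto plants at the one-to-four leaf stage. Duck salad was treated via flood water (~2.5 cm, maintained) over silt loam.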

corn = experiment: as above; type: in vivo, Zea mays; details: POSTEMERGENCE; for Plant response rating, Corn: 0 to 100 scale
Procedure, shortened: as §2

lambsquarters [4] = experiment: as above; type: in vivo, Chenopodium album; details: POSTEMERGENCE; for Plant response rating Lambsquarters: 0 to 100 scale
Procedure, shortened: as §2

morningglory = experiment: as above; type: in vivo, Ipomoea hederacea; details: POSTEMERGENCE; for Plant response rating, Morningglory: 0 to 100 scale
Procedure, shortened: as §2

rape = experiment: as above; type: in vivo, Brassica napus; details: POSTEMERGENCE; for Plant response rating, Rape: 0 to 100 scale
Procedure, shortened: as §2

sorghum = experiment: as above; type: in vivo, Sorghum bicolor; details: POSTEMERGENCE; for Plant response rating, Sorghum: 0 to 100 scale
Procedure, shortened: as §2

soybean [5] = experiment: as above; type: in vivo, Glycine max; details: POSTEMERGENCE; for Plant response rating, Soybean: 0 to 100 scale
Procedure, shortened: as §2

sugar beet = experiment: as above; type: in vivo, Beta vulgaris; details: POSTEMERGENCE; for Plant response rating, Sugar beet: 0 to 100 scale
Procedure, shortened: as §2

velvetleaf [6] = experiment: as above; type: in vivo, Abutilon theophrasti; details: POSTEMERGENCE; for Plant response rating, Velvetleaf: 0 to 100 scale
Procedure, shortened: as §2

umbrella sedge = experiment: Test C flood test plant response rating 0 to 100; type: in vivo, Cyperus difformis; details: for Plant response rating Umbrella sedge: flood test species listed under POSTEMERGENCE, 0 to 100 scale
Procedure, shortened: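 Compounds in non-phytotoxic solvent applied preemergence to sandy loam one day after planting, postemergence at the 1–4 leaf stage, or to ~2.5 cm floodwater over silt loam.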

CC(C)OC(=O)c1cc(-c2nn3c(c2Cl)CCCC3)c(F)cc1Cl [Compound 44]
Plant response rating, Cheatgrass (cheatgrass; POSTEMERGENCE, Rate 50 g/ha): 7 | Plant response rating, Cheatgrass (cheatgrass; POSTEMERGENCE, Rate 200 g/ha): 10 | Plant response rating, Cheatgrass (cheatgrass; PREEMERGENCE, Rate 50 g/ha): 2 | Plant response rating, Cheatgrass (cheatgrass; Rate 200 g/ha, PREEMERGENCE): 6 | Plant response rating, Cotton (cotton; POSTEMERGENCE, Rate 50 g/ha): 10 | Plant response rating, Cotton (cotton; POSTEMERGENCE, Rate 200 g/ha): 10 | Plant response rating, Cotton (cotton; PREEMERGENCE, Rate 50 g/ha): 1 | Plant response rating, Cotton (cotton; Rate 200 g/ha, PREEMERGENCE): 8 | Plant response rating, Lambsquarter (lambsquarters [1]; POSTEMERGENCE, Rate 50 g/ha): 10 | Plant response rating, Lambsquarter (lambsquarters [1]; PREEMERGENCE, Rate 50 g/ha): 10 | Plant response rating, Lambsquarter (lambsquarters [1]; Rate 200 g/ha, POSTEMERGENCE): 10 | Plant response rating, Lambsquarter (lambsquarters [1]; Rate 200 g/ha, PREEMERGENCE): 10 | Plant response rating, Rice (rice; POSTEMERGENCE, Rate 50 g/ha): 5 | Plant response rating, Rice (rice; PREEMERGENCE, Rate 50 g/ha): 1 | Plant response rating, Rice (rice; Rate 200 g/ha, POSTEMERGENCE): 9 | Plant response rating, Rice (rice; Rate 200 g/ha, PREEMERGENCE): 2 | Plant response rating, Soybean (soybean [2]; POSTEMERGENCE, Rate 50 g/ha): 8 | Plant response rating, Soybean (soybean [2]; PREEMERGENCE, Rate 50 g/ha): 0 | Plant response rating, Soybean (soybean [2]; Rate 200 g/ha, POSTEMERGENCE): 8 | Plant response rating, Soybean (soybean [2]; Rate 200 g/ha, PREEMERGENCE): 3 | Plant response rating, Velvetleaf (velvetleaf [3]; POSTEMERGENCE, Rate 50 g/ha): 9 | Plant response rating, Velvetleaf (velvetleaf [3]; PREEMERGENCE, Rate 50 g/ha): 4 | Plant response rating, Velvetleaf (velvetleaf [3]; Rate 200 g/ha, POSTEMERGENCE): 10 | Plant response rating, Velvetleaf (velvetleaf [3]; Rate 200 g/ha, PREEMERGENCE): 8 | Plant response rating, Wild buckwheat (wild buckwheat; POSTEMERGENCE, Rate 50 g/ha): 10 | Plant response rating, Wild buckwheat (wild buckwheat; PREEMERGENCE, Rate 50 g/ha): 9 | Plant response rating, Wild buckwheat (wild buckwheat; Rate 200 g/ha, POSTEMERGENCE): 10 | Plant response rating, Wild buckwheat (wild buckwheat; Rate 200 g/ha, PREEMERGENCE): 9 | Plant response rating, Nutsedge (purple nutsedge; POSTEMERGENCE, Rate 50 g/ha): 4 | Plant response rating, Nutsedge (purple nutsedge; PREEMERGENCE, Rate 50 g/ha): 0 | Plant response rating, Nutsedge (purple nutsedge; Rate 200 g/ha, POSTEMERGENCE): 8 | Plant response rating, Nutsedge (purple nutsedge; Rate 200 g/ha, PREEMERGENCE): 3 | Plant response rating Barley Igri (barley; 62 g/ha): 40 | Plant response rating Barley Igri (barley; 250 g/ha): 60 | Plant response rating (0 to 100), Barley Igri (barley; Rate 4 g/ha): 10 | Plant response rating (0 to 100), Barley Igri (barley; Rate 16 g/ha): 30 | Plant response rating, Corn (corn; 62 g/ha): 50 | Plant response rating, Corn (corn; 250 g/ha): 90 | Plant response rating (0 to 100), Corn (corn; Rate 4 g/ha): 30 | Plant response rating (0 to 100), Corn (corn; Rate 16 g/ha): 40 | Plant response rating Lambsquarters (lambsquarters [4]; 62 g/ha): 100 | Plant response rating Lambsquarters (lambsquarters [4]; 250 g/ha): 100 | Plant response rating (0 to 100), Lambsquarters (lambsquarters [4]; Rate 4 g/ha): 90 | Plant response rating (0 to 100), Lambsquarters (lambsquarters [4]; Rate 16 g/ha): 100 | Plant response rating, Morningglory (morningglory; 62 g/ha): 95 | Plant response rating, Morningglory (morningglory; 250 g/ha): 100 | Plant response rating (0 to 100), Morningglory (morningglory; Rate 4 g/ha): 50 | Plant response rating (0 to 100), Morningglory (morningglory; Rate 16 g/ha): 70 | Plant response rating, Rape (rape; 62 g/ha): 100 | Plant response rating, Rape (rape; 250 g/ha): 100 | Plant response rating (0 to 100), Rape (rape; Rate 4 g/ha): 40 | Plant response rating (0 to 100), Rape (rape; Rate 16 g/ha): 70 | Plant response rating, Sorghum (sorghum; 62 g/ha): 60 | Plant response rating, Sorghum (sorghum; 250 g/ha): 100 | Plant response rating (0 to 100), Sorghum (sorghum; Rate 4 g/ha): 30 | Plant response rating (0 to 100), Sorghum (sorghum; Rate 16 g/ha): 40 | Plant response rating, Soybean (soybean [5]; 62 g/ha): 50 | Plant response rating, Soybean (soybean [5]; 250 g/ha): 70 | Plant response rating (0 to 100), Soybean (soybean [5]; Rate 4 g/ha): 10 | Plant response rating (0 to 100), Soybean (soybean [5]; Rate 16 g/ha): 30 | Plant response rating, Sugar beet (sugar beet; 62 g/ha): 100 | Plant response rating, Sugar beet (sugar beet; 250 g/ha): 100 | Plant response rating (0 to 100), Sugar beet (sugar beet; Rate 4 g/ha): 80 | Plant response rating (0 to 100), Sugar beet (sugar beet; Rate 16 g/ha): 100 | Plant response rating, Velvetleaf (velvetleaf [6]; 62 g/ha): 100 | Plant response rating, Velvetleaf (velvetleaf [6]; 250 g/ha): 100 | Plant response rating (0 to 100), Velvetleaf (velvetleaf [6]; Rate 4 g/ha): 80 | Plant response rating (0 to 100), Velvetleaf (velvetleaf [6]; Rate 16 g/ha): 90 | Plant response rating (0 to 100), Umbrella sedge (umbrella sedge; POSTEMERGENCE section, flood test, Rate 4 g/ha): 30 | Plant response rating (0 to 100), Umbrella sedge (umbrella sedge; Rate 16 g/ha, under POSTEMERGENCE head (flood test species)): 60 | Plant response rating Umbrella sedge (umbrella sedge; 62 g/ha): 80 | Plant response rating Umbrella sedge (umbrella sedge; 250 g/ha): 100
